This is an account of results in PMC8247284 (Antiviral Research, 2021).

One may read the EC50 as the concentration giving half of the maximal effect.

Test [1] concerns alpha- and beta-coronaviruses. Description: organism not typed. Conditions: read-out: EC50 values against the various coronaviruses.
Test [2] has as its system SARS-CoV-2. It is filed as cell-based.
The subject of test [3] is LC3 puncta (autophagy pathway). The experiment in a line: High content analysis of cytoplasmic LC3 puncta in HEp-2 cells. Type of test: cell-based, human. Conditions: 3 h incubation, relative to untreated control.
Another test deals with HCoV-229E. The experiment in a line: Confocal microscopy of dsRNA, HCoV-229E-infected Huh7 cells. It is filed as cell-based. Conditions: dsRNA staining, 6 h.
The subject of test [4] is SARS-CoV-2. The experiment in a line: Confocal microscopy of dsRNA, SARS-CoV-2-infected Huh7 cells. It is filed as cell-based. Conditions: chloroquine 5 μM, 6 h.
Test [5] relates to LC3-positive puncta (autophagy). The experiment in a line: Confocal microscopy of LC3 in Huh7 cells. Type of test: cell-based, human. The following applies: chloroquine 0.5, 5 and 50 μM, 6 h, infected and uninfected Huh7 cells.

`COc1cc(C)c2c(Oc3cccc(C(F)(F)F)c3)c(OC)cc(NC(C)CCCN)c2n1` (stereo not drawn) [Tafenoquine, tafenoquine]: the half-maximal effective concentration (EC50) in test [1] is greater than 13 µM. Regarding `C=C[C@H]1C[N@@]2CC[C@H]1C[C@H]2[C@H](O)c1ccnc2ccc(OC)cc12` [Quinine, quinine], the EC50 in test [1] is greater than 13 µM.

As for `N#C[C@@]1(c2ccc3c(N)ncnn23)O[C@H](CO)[C@@H](O)[C@H]1O` [GS-441524], the “log reduction of the viral copy number” value with SARS-CoV-2 [2] came to 4.3 log. As for `C=C[C@H]1C[N@@]2CC[C@H]1C[C@@H]2[C@@H](O)c1ccnc2ccc(OC)cc12` [Quinidine, quinidine], in test [1], the EC50 is greater than 13 µM. As to `CCN(CCO)CCCC(C)Nc1ccnc2cc(Cl)ccc12` (stereo not drawn) [Hydroxychloroquine, hydroxychloroquine], the “increase of the intensity of cytoplasmic LC3 puncta” value in test [3] was found to be 6 fold. Moreover, the concentration for a half-maximal effect (EC50) in test [1] was 0.12 to 12 µM. With `CCN(CC)CCCC(C)Nc1ccnc2cc(Cl)ccc12` (stereo not drawn) [Chloroquine, chloroquine], the “increase of the intensity of cytoplasmic LC3 puncta” value in test [3] is reported as 6 fold. Besides, the “concentration required to fully inhibit HCoV-229E replication” value with HCoV-229E came to 50 µM. Moreover, the EC50 in test [1] lay within 0.12 to 12 µM. For the same compound, the “viral RNA synthesis (dsRNA staining)” value in the test on SARS-CoV-2 [4] was “completely blocked”. Besides, in test [5], the LC3-positive puncta entry is listed as “dose-dependent increase”. `COc1cc(NC(C)CCCN)c2ncccc2c1` (stereo not drawn) [Primaquine, primaquine]: the half-maximal effective concentration (EC50) in test [1] is greater than 13 µM.
